Marks after values point to notes of the source that are not given here. Where no end group is shown, it is not given here.
Columns and labels:
[1] = system: FVB/N adult mice; assay: Biochemical and physiological male fertility correlates after ARP injection; type: in vivo, mouse
Excerpt: Culture Analyses: Twenty-four hr liquid cultures served for cytochemical staining, in situ hybridization, and cell proliferation assay by 5-bromo-2′-deoxy-Uridine (BrdU) incorporation [Grisaru et al. (1999b) id ibid.]. Twenty-eight day liquid cultures were sampled every 6–8 days for viable cell counting (using trypan blue dye exclusion), cell phenotyping (CD34^+, CD33^+ and CD41^+ quantification using flow cytometry, with CD34-PE, CD33-FITC (Immunotech/Coulter, Hialeah, Fla.), CD41-FITC (Immunoquality Products, Groningen, Netherlands) and CD45-FITC monoclonal antibodies), and growth of progenitor colony (granulocyte-macrophage and megakaryocytic), using previously described techniques (Pick et al. (1998) id ibid.). Cytochemical Staining: Staining of AChE activity was essentially as detailed elsewhere [Grisaru et al. (1999b) id ibid], on non-fixed liquid cultures following 300×g centrifugation on collagen-coated cover slips placed on the bottom of the culture well, in the presence of 10^−5 M iso-OMPA (ISO) or BW284C51 (BW), selective inhibitors of BuChE and AChE, respectively [see also Keymer et al.(1999) Eur. J. Neurosci. 11, 1049–57]. Nuclear staining w with 4′,6-diamidino-2- phenylindole [DAPI, see e.g., Peterson et al. (1999) Genetics 152, 427–439]. Animals and Tissue Collection: Male FVB/N mice (2–6 months old) were sacrificed 24 hr following 4 successive days of a forced swim session as detailed [Kaufer et al. (1998) id ibid.], or a single injection of ARP (34 nmol/kg weight), or phosphate buffer (PB) for control. ARP, a 26 amino acid residue peptide synthesized according to the C-terminal sequence of human AChE-R [Grisaru et al. (1999b) id ibid.] was HPLC purified and mass-spectrometry analysed for purity. Control naïve mice and hAChE-R transgenics were sacrificed with no prior treatment. Blood samples were allowed to clot 1 hr at room temperature and overnight at 4° C., followed by centrifugation and serum collection. Testes and seminal vesicles were excised and weighed, fixed in 4% paraformaldehyde or Bouin's fixative for histological staining or kept at −70° C. for protein extraction. Sperm cells were collected from one cauda epididymis shredded in 1 ml saline. Evaluation of Serum Corticosterone Levels: concentrations were determined by radioimmunoassay.
Epididymal sperm motility was assessed by visually determining percent motile sperm. Sperm concentration was measured using the Makler chamber (company, city, state).
Detection of the AChE core protein and/or its variant C-terminal peptides was performed on 7 μm thick paraffin embedded testis sections with either anti-ASP (C-16; Santa Cruz Biotechnology, Santa Cruz, Calif.) or anti-ARP polyclonal antibodies [Sternfeld et al. (2000) id ibid.]. PCNA was detected using a dedicated staining kit (Zymed Laboratories, San-Francisco, Calif.); nuclear staining and counterstaining was with DAPI and hematoxylin, respectively (Sigma, St. Louis Mo.).
To determine the in vivo capacity of ARP to affect different biochemical and physiological male fertility properties, the effect of injection of ARP or chronic expression of AChE-R (AChE-R transgenic mice) on different parameters was examined.

[2] = system: CD34^+ cells; assay: Cell phenotyping of CD34+ liquid cultures by flow cytometry (CD34, CD33, CD15, CD41); type: cell-based, human; details: for MK (CD41^+) fold expansion / Myeloid (CD33^+) fold expansion: 2-week primary cultures of CD34+ cells from 1 to 3 individuals, ± SEM where noted
Excerpt: Cell Source: UCB was collected, following informed consent of the parents and with the approval of the Sourasky Medical Center Ethics Committee, as previously described [Grisaru et al. (1999a) Am. J. Obstet. Gynecol, 180, 1240–1243]. Following 1:1 (v/v) dilution in Iscove's modified Dulbecco medium (IMDM, Beit Haemek, Israel), mononuclear cells were separated using 3% gelatin (Difco, Detroit, Mich.) and Ficoll-Hypaque gradients (<1.077 g/ml; Pharmacia, Uppsala, Sweden) [Pick et al. (1998) Br. J. Haematol. 103, 639–50]. CD34^+ cells were enriched using CD34 immunoglobulin-coated magnetic beads (CD34 progenitor cell selection system, Dynal, Norway).CD34^+ cells analysis was performed by flow cytometry (Becton Dickinson Immunocytochemistry System Inc., San Jose, Calif.), using CD34-PE (Becton Dickinson Immunocytometry System, Inc.) and CD45-FITC (Dako, Glostrup, Denmark) monoclonal antibodies. […] Liquid Cultures: UCB CD34^+ cells were set for liquid cultures at a concentration of 10^5/mL in IMDM, containing 10% autologous plasma, 2 mM L-glutamine (Sigma Chemical Co., St Louis, Mo.), penicillin ([…]), streptomycin ([…]), amphotericin B (2×10^−5 M) (Sigma Chemical Co.), and heparin (20 IU/mL, Gibco, Grand Island, N.Y.), all in a fully humidified atmosphere at 37° C. and 5% CO2. The following elements were added where noted: • 1. […] Endothlial Growth factors: Epidermal growth factor (EGF 10 ng/ml, Sigma Chemical Co.), basic Fibroblast growth factor (bFGF 20 ng/ml, Sigma Chemical Co.) incubated in a serum free medium (SFM) for 48 hr. • 3. Stress mimicking conditions: Hydrocortisone sodium succinate (Abic Ltd., Netanya, Israel) at concentrations equivalent to normal, intermediate and stress serum cortisol levels (0.1, 0.6 and 1.2 μM, respectively (De Vroede et al., Arch. Des. […] Antisense oligonucleotides: 3′-terminal 2′-O-Methylated 15- and 20-mer oligodeoxynucleotides in the antisense (AS) orientation, targeted against the common sequence domain in human AChEmRNA and BuChE mRNA, as control, […], as detailed elsewhere [Grisaru et al. (1999b) Mol. Cell. Biol. 19, 788–95]. • 5. AChE C-terminal peptides: The following C-terminal peptides of the AChE synaptic (ASP, also denoted SEQ ID: No. 2) and readthrough (ARP, also denoted SEQ ID: No. 1) isoforms were synthesized using a 433A peptide synthesizer (PE Applied Biosystems, Inc., Norwalk, Conn.). • ASP: 1-[…]-40, also denoted as SEQ ID: No. 2. • ARP: 1-[…]-26, also denoted as SEQ ID: No. 1.
Culture Analyses: Twenty-four hr liquid cultures served for cytochemical staining, in situ hybridization, and cell proliferation assay by 5-bromo-2′-deoxy-Uridine (BrdU) incorporation [Grisaru et al. (1999b) id ibid.]. Twenty-eight day liquid cultures were sampled every 6–8 days for viable cell counting (using trypan blue dye exclusion), cell phenotyping (CD34^+, CD33^+ and CD41^+ quantification using flow cytometry, with CD34-PE, CD33-FITC (Immunotech/Coulter, Hialeah, Fla.), CD41-FITC (Immunoquality Products, Groningen, Netherlands) and CD45-FITC monoclonal antibodies), and growth of progenitor colony (granulocyte-macrophage and megakaryocytic), using previously described techniques (Pick et al. (1998) id ibid.). […] 11, 1049–57]. Nuclear staining w with 4′,6-diamidino-2- phenylindole [DAPI, see e.g., Peterson et al. (1999) Genetics 152, 427–439].

[3] = system: CD34^+ cells; assay: BrdU incorporation into CD34+ cells (cell proliferation); type: cell-based, human; details: GM-CSF alone, 16 hr
Excerpt: Cell Source: UCB was collected, following informed consent of the parents and with the approval of the Sourasky Medical Center Ethics Committee, as previously described [Grisaru et al. (1999a) Am. J. Obstet. Gynecol, 180, 1240–1243]. Following 1:1 (v/v) dilution in Iscove's modified Dulbecco medium (IMDM, Beit Haemek, Israel), mononuclear cells were separated using 3% gelatin (Difco, Detroit, Mich.) and Ficoll-Hypaque gradients (<1.077 g/ml; Pharmacia, Uppsala, Sweden) [Pick et al. (1998) Br. J. Haematol. 103, 639–50]. CD34^+ cells were enriched using CD34 immunoglobulin-coated magnetic beads (CD34 progenitor cell selection system, Dynal, Norway).CD34^+ cells analysis was performed by flow cytometry (Becton Dickinson Immunocytochemistry System Inc., San Jose, Calif.), using CD34-PE (Becton Dickinson Immunocytometry System, Inc.) and CD45-FITC (Dako, Glostrup, Denmark) monoclonal antibodies. […] Liquid Cultures: UCB CD34^+ cells were set for liquid cultures at a concentration of 10^5/mL in IMDM, containing 10% autologous plasma, 2 mM L-glutamine (Sigma Chemical Co., St Louis, Mo.), penicillin ([…]), streptomycin ([…]), amphotericin B (2×10^−5 M) (Sigma Chemical Co.), and heparin (20 IU/mL, Gibco, Grand Island, N.Y.), all in a fully humidified atmosphere at 37° C. and 5% CO2. The following elements were added where noted: • 1. Hematopoietic growth factors: Interleukin 3 (IL3, 5 ng/mL, Immunex, Seattle, Wash.), interleukin 6 (IL6, 50 ng/mL, R&D Systems, Minneapolis, Minn.), TPO (1 ng/mL, R&D Systems), stem cell factor (SCF, 10 ng/mL, R&D Systems), FLT-3 ligand (FLT3, 50 ng/mL, R&D Systems), granulocyte-macrophage colony stimulating factor (GM-CSF, 50 ng/mL, Biogenesis Ltd, Bournemouth, UK) and combinations of the above, for 24 hr to 28 days (supplemented every 4 days). • 2. […] AChE C-terminal peptides: The following C-terminal peptides of the AChE synaptic (ASP, also denoted SEQ ID: No. 2) and readthrough (ARP, also denoted SEQ ID: No. 1) isoforms were synthesized using a 433A peptide synthesizer (PE Applied Biosystems, Inc., Norwalk, Conn.). • ASP: 1-[…]-40, also denoted as SEQ ID: No. 2. • ARP: 1-[…]-26, also denoted as SEQ ID: No. 1.
[…] Twenty-eight day liquid cultures were sampled every 6–8 days for viable cell counting (using trypan blue dye exclusion), cell phenotyping (CD34^+, CD33^+ and CD41^+ quantification using flow cytometry, with CD34-PE, CD33-FITC (Immunotech/Coulter, Hialeah, Fla.), CD41-FITC (Immunoquality Products, Groningen, Netherlands) and CD45-FITC monoclonal antibodies), and growth of progenitor colony (granulocyte-macrophage and megakaryocytic), using previously described techniques (Pick et al. (1998) id ibid.). […]

[4] = system: CD34^+ cells; assay: Viable cell expansion in CD34+ liquid cultures (trypan blue exclusion); type: cell-based, human; details: day 14; seeded at 50,000 cells/well; ARP 2 nM, cortisol 1.2 μM, ASP 2 nM, SCF 50 ng/ml, AS1 20 pM, PBAN 2 nM
Excerpt: Cell Source: UCB was collected, following informed consent of the parents and with the approval of the Sourasky Medical Center Ethics Committee, as previously described [Grisaru et al. (1999a) Am. J. Obstet. Gynecol, 180, 1240–1243]. Following 1:1 (v/v) dilution in Iscove's modified Dulbecco medium (IMDM, Beit Haemek, Israel), mononuclear cells were separated using 3% gelatin (Difco, Detroit, Mich.) and Ficoll-Hypaque gradients (<1.077 g/ml; Pharmacia, Uppsala, Sweden) [Pick et al. (1998) Br. J. Haematol. 103, 639–50]. CD34^+ cells were enriched using CD34 immunoglobulin-coated magnetic beads (CD34 progenitor cell selection system, Dynal, Norway).CD34^+ cells analysis was performed by flow cytometry (Becton Dickinson Immunocytochemistry System Inc., San Jose, Calif.), using CD34-PE (Becton Dickinson Immunocytometry System, Inc.) and CD45-FITC (Dako, Glostrup, Denmark) monoclonal antibodies. […] Liquid Cultures: UCB CD34^+ cells were set for liquid cultures at a concentration of 10^5/mL in IMDM, containing 10% autologous plasma, 2 mM L-glutamine (Sigma Chemical Co., St Louis, Mo.), penicillin ([…]), streptomycin ([…]), amphotericin B (2×10^−5 M) (Sigma Chemical Co.), and heparin (20 IU/mL, Gibco, Grand Island, N.Y.), all in a fully humidified atmosphere at 37° C. and 5% CO2. The following elements were added where noted: • 1. Hematopoietic growth factors: Interleukin 3 (IL3, 5 ng/mL, Immunex, Seattle, Wash.), interleukin 6 (IL6, 50 ng/mL, R&D Systems, Minneapolis, Minn.), TPO (1 ng/mL, R&D Systems), stem cell factor (SCF, 10 ng/mL, R&D Systems), FLT-3 ligand (FLT3, 50 ng/mL, R&D Systems), granulocyte-macrophage colony stimulating factor (GM-CSF, 50 ng/mL, Biogenesis Ltd, Bournemouth, UK) and combinations of the above, for 24 hr to 28 days (supplemented every 4 days). • 2. Endothlial Growth factors: Epidermal growth factor (EGF 10 ng/ml, Sigma Chemical Co.), basic Fibroblast growth factor (bFGF 20 ng/ml, Sigma Chemical Co.) incubated in a serum free medium (SFM) for 48 hr. • 3. […] AChE C-terminal peptides: The following C-terminal peptides of the AChE synaptic (ASP, also denoted SEQ ID: No. 2) and readthrough (ARP, also denoted SEQ ID: No. 1) isoforms were synthesized using a 433A peptide synthesizer (PE Applied Biosystems, Inc., Norwalk, Conn.). • ASP: 1-[…]-40, also denoted as SEQ ID: No. 2. • ARP: 1-[…]-26, also denoted as SEQ ID: No. 1. […]

[5] = 24-hr post i.p. injection of 34 nmol/Kg ARP, FVB/N adult male mice
[6] = day 14, seeded at 50,000 cells/well, ARP 2 nM, cortisol 1.2 μM, ASP 2 nM, SCF 50 ng/ml, AS1 20 pM, PBAN 2 nM

Substance: GMQGPAGSGWEEGSGSPPGVTPLFSP [ARP]
- seminal gland wt. [1, 5]: 10.79 ± 1.08 mg/gr weight
- sperm counts [1, 5]: 5.3 ± 1.2 cells/epididimis × 10^−6
- sperm, motile [1, 5]: 5 ± 1.7 % of total sperm cells
- sperm cell motility ([1]; ARP injected mice): significantly reduced motility
- sperm counts compared with untreated FVB/N mice ([1]; ARP-injected mice): lower

Substance: TPO
- MK (CD41^+) fold expansion [2]: 3.93 ± 3.56 fold
- Myeloid (CD33^+) fold expansion [2]: 3.51 ± 2.23 fold

Substance: GM-CSF
- MK (CD41^+) fold expansion [2]: 14.50 fold
- Myeloid (CD33^+) fold expansion [2]: 1.35 fold
- BrdU incorporation into CD34+ cells [3]: increased

Substance: SCF
- MK (CD41^+) fold expansion [2]: 0.30 ± 0.21 fold
- Myeloid (CD33^+) fold expansion [2]: 3.90 fold
- CD33^+ (early myeloids) [2, 6]: 69.0 cells per culture × 10^−3
- CD33^+ and CD15^+ (total myeloids) [2, 6]: 72.0 cells per culture × 10^−3
- CD34^+ (early progenitors) [2, 6]: 6.3 cells per culture × 10^−3
- CD41^+ (megakaryocytes) [2, 6]: 2.6^b cells per culture × 10^−3
- Total viable cells [4]: 118.0 cells per culture × 10^−3
